Where two headings read alike, the source gives them in different places.
Legend:
[1] = test system: Hek293 WFS1 over-expressor; assay: In vitro cell viability (CellTiter-Glo), Hek293 WFS1 over-expressor; assay type: cell-based; details: read-out: Hek293 WFS1 viability
Outline: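 HEK293 cells stably overexpressing WFS1 via retroviral transduction (puromycin-selected), with empty-vector cells as counterpart, plated 1,000/well. Compounds added at various concentrations after overnight attachment; viability by CellTiter-Glo luminescence after 96 h, reported as IC50.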

Hek293 empty vector = assay: In vitro cell viability (CellTiter-Glo), Hek293 empty vector; assay type: cell-based; details: read-out: Hek293 empty vector viability
Outline: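 HEK293 cells stably transduced with empty pCLPCX retroviral vector (puromycin-selected), seeded 1,000 cells/well, treated next day with compounds at various concentrations. Viability read by CellTiter-Glo luminescence 96 hrs after compound addition; IC50 derived.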

[2] = molecular target: HEK293 membranes over-expressing WFS-1 (Homo sapiens (Human), UniProt O76024); assay: Radioligand displacement assay (tritiated Compound 136 probe); assay type: binding; details: displacement of tritiated Compound 136
Chain of HEK293 membranes over-expressing WFS-1 (O76024 whole entry): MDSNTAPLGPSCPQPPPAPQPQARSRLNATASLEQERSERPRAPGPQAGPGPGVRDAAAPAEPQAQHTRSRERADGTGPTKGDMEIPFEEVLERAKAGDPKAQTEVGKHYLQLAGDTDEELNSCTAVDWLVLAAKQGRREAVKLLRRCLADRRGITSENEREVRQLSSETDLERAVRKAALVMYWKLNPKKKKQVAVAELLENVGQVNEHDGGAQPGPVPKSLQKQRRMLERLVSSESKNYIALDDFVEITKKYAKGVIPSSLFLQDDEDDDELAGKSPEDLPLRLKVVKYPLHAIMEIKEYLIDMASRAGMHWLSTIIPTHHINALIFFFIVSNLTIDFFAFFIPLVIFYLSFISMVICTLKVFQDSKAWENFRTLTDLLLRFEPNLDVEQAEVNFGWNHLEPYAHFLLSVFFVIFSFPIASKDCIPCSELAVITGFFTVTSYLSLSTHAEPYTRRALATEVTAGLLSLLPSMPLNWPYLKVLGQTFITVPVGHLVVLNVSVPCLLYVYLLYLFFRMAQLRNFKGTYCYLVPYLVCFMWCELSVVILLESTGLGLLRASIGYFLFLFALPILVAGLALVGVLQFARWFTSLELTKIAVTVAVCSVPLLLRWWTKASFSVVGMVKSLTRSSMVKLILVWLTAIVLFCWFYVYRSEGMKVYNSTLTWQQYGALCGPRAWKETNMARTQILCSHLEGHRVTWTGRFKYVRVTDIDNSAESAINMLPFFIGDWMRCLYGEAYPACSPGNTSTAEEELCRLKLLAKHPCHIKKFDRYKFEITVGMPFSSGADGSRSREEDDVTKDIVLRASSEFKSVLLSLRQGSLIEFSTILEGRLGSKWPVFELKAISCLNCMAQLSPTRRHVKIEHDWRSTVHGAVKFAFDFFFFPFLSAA
Outline: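 WFS-1-overexpressing HEK293 membranes were preincubated 10 min with compound, then tritiated probe was added for 90 min at room temperature. Bound probe was collected by filtration on PEI-pretreated GF/B filters, washed and scintillation-counted. IC50 came from a 3-parameter fit of bound probe vs compound concentration.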

[3] = Homo sapiens, HEK293, Hek293 WFS1 over-expressing cells
[4] = Hek293 WFS1 over-expressing cells

| IC50 [2] [nM] | Molecule | IC50 [1, 3] [nM] | IC50 (Hek293 empty vector; Homo sapiens, HEK293) [nM] | IC50 [1, 4] [nM] | IC50 (Hek293 empty vector; Hek293 empty vector) [nM] |
| --- | --- | --- | --- | --- | --- |
| < 60 | Cc1nc(NCc2cnn(Cc3ccc(C(F)(F)F)nc3C(C)C)c2)nc2c1NC(=O)[C@H](C)N2C [Compound 388, (7S)-2-(((1-((2-isopropyl-6-(trifluoromethyl)pyridin-3-yl)methyl)-1H-pyrazol-4-yl)methyl)amino)-4,7,8-trimethyl-7,8-dihydropteridin-6(5H)-one] | < 60 | ≥ 3000 | – | – |
| 60 to 600 | Cc1nc(NCc2cnn(Cc3cc(C(F)(F)F)nn3C)c2)nc2c1NC(=O)[C@H](C1CC1)N2C [Compound 396, (7S)-7-Cyclopropyl-4,8-dimethyl-2-(((1-((1-methyl-3-(trifluoromethyl)-1H-pyrazol-5-yl)methyl)-1H-pyrazol-4-yl)methyl)amino)-7,8-dihydropteridin-6(5H)-one] | < 60 | ≥ 3000 | – | – |
| 60 to 600 | Cc1nc(NCc2cnn(Cc3cc(C(F)(F)F)nn3C)c2)nc2c1NC(=O)[C@H](C(C)C)N2C [Compound 397, (7S)-7-Isopropyl-4,8-dimethyl-2-(((1-((1-methyl-3-(trifluoromethyl)-1H-pyrazol-5-yl)methyl)-1H-pyrazol-4-yl)methyl)amino)-7,8-dihydropteridin-6(5H)-one] | < 60 | ≥ 3000 | – | – |
| 60 to 600 | Cc1nc(NCc2cnn(Cc3ccc(C(F)(F)F)nc3)c2)nc2c1NC(=O)C1(CCC1)N2C [Compound 398, 4′,8′-dimethyl-2′-(((1-((6-(trifluoromethyl)pyridin-3-yl)methyl)-1H-pyrazol-4-yl)methyl)amino)-5′,8′-dihydro-6′H-spiro[cyclobutane-1,7′-pteridin]-6′-one] | < 60 | ≥ 3000 | – | – |
| ≥ 3000 | Cc1nc(N(C)Cc2cnn(Cc3ccc(C(F)(F)F)nc3)c2)nc2c1NC(=O)[C@H](C)N2C [Compound 403, (7S)-4,7,8-trimethyl-2-(methyl((1-((6-(trifluoromethyl)pyridin-3-yl)methyl)-1H-pyrazol-4-yl)methyl)amino)-7,8-dihydropteridin-6(5H)-one] | ≥ 3000 | ≥ 3000 | – | – |
| < 60 | Cc1nc(NCc2cnn(Cc3ccc(Cl)nc3)c2)nc2c1NC(=O)[C@H](C(C)C)N2C [Compound 409, (7S)-2-(((1-((6-chloropyridin-3-yl)methyl)-1H-pyrazol-4-yl)methyl)amino)-7-isopropyl-4,8-dimethyl-7,8-dihydropteridin-6(5H)-one] | < 60 | ≥ 3000 | – | – |
| < 60 | Cc1nc(NCc2cnn(Cc3ccc(C(F)(F)F)nc3C(C)(C)O)c2)nc2c1NC(=O)[C@H](C)N2C [Compound 416, (7S)-2-(((1-((2-(2-hydroxypropan-2-yl)-6-(trifluoromethyl)pyridin-3-yl)methyl)-1H-pyrazol-4-yl)methyl)amino)-4,7,8-trimethyl-7,8-dihydropteridin-6(5H)-one] | < 60 | ≥ 3000 | – | – |
| < 60 | Cc1nc(NCc2cnn(Cc3ccc(C(F)(F)F)nc3Cl)c2)nc2c1NC(=O)[C@H](C)N2C [Compound 418, (7S)-2-(((1-((2-chloro-6-(trifluoromethyl)pyridin-3-yl)methyl)-1H-pyrazol-4-yl)methyl)amino)-4,7,8-trimethyl-7,8-dihydropteridin-6(5H)-one] | < 60 | ≥ 3000 | – | – |
| < 60 | Cc1nc(NCc2cnn(Cc3cnc(Cl)c(F)c3)c2)nc2c1NC(=O)[C@H](C(C)C)N2C [Compound 424, (7S)-2-(((1-((6-chloro-5-fluoropyridin-3-yl)methyl)-1H-pyrazol-4-yl)methyl)amino)-7-isopropyl-4,8-dimethyl-7,8-dihydropteridin-6(5H)-one] | < 60 | ≥ 3000 | – | – |
| < 60 | CC[C@H]1C(=O)Nc2cnc(NCc3cnn(Cc4ccc(C(F)(F)F)nc4)c3)nc2N1C [Compound 427, (7S)-7-ethyl-8-methyl-2-(((1-((6-(trifluoromethyl)pyridin-3-yl)methyl)-1H-pyrazol-4-yl)methyl)amino)-7,8-dihydropteridin-6(5H)-one] | 60 to 600 | ≥ 3000 | – | – |
| ≥ 3000 | Cc1nc(NCc2cn(Cc3ccc(C(F)(F)F)nc3)cn2)nc2c1NC(=O)[C@H](C)N2C [Compound 428, (S)-4,7,8-trimethyl-2-(((1-((6-(trifluoromethyl)pyridin-3-yl)methyl)-1H-imidazol-4-yl)methyl)amino)-7,8-dihydropteridin-6(5H)-one] | ≥ 3000 | ≥ 3000 | – | – |
| 60 to 600 | (7S)-4,7,8-trimethyl-2-((trans-3-(3,4-difluorophenoxy)cyclobutyl)amino)-7,8-dihydropteridin-6(5H)-one [Compound 251] | – | – | 60 to 600 | ≥ 3000 |

Second part, the molecule before the results:

| Molecule | IC50 [2] [nM] | IC50 [1, 3] [nM] | IC50 (Hek293 empty vector; Homo sapiens, HEK293) [nM] | IC50 [1, 4] [nM] | IC50 (Hek293 empty vector; Hek293 empty vector) [nM] |
| --- | --- | --- | --- | --- | --- |
| CCN1c2nc(NCc3cnn(Cc4ccc(C(F)(F)F)nc4)c3)nc(C)c2NC(=O)[C@@H]1C [Compound 395, (7S)-8-Ethyl-4,7-dimethyl-2-(((1-((6-(trifluoromethyl)pyridin-3-yl)methyl)-1H-pyrazol-4-yl)methyl)amino)-7,8-dihydropteridin-6(5H)-one] | 60 to 600 | < 60 | ≥ 3000 | – | – |
| CC(=O)N(Cc1cnn(Cc2ccc(C(F)(F)F)nc2)c1)c1nc(C)c2c(n1)N(C)[C@@H](C)C(=O)N2 [Compound 405, (7S)-N-((1-((6-(trifluoromethyl)pyridin-3-yl)methyl)-1H-pyrazol-4-yl)methyl)-N-(4,7,8-trimethyl-6-oxo-5,6,7,8-tetrahydropteridin-2-yl)acetamide] | ≥ 3000 | ≥ 3000 | ≥ 3000 | – | – |
| Cc1nc(NCc2cn(Cc3ccc(C(F)(F)F)nc3)nc2Br)nc2c1NC(=O)[C@H](C)N2C [Compound 412, (S)-2-(((3-bromo-1-((6-(trifluoromethyl)pyridin-3-yl)methyl)-1H-pyrazol-4-yl)methyl)amino)-4,7,8-trimethyl-7,8-dihydropteridin-6(5H)-one] | < 60 | 60 to 600 | ≥ 3000 | – | – |
| Cc1nc(NCc2cnn(Cc3cncc(F)c3)c2)nc2c1NC(=O)[C@H](C(C)C)N2C [Compound 415, (7S)-2-(((1-((5-fluoropyridin-3-yl)methyl)-1H-pyrazol-4-yl)methyl)amino)-7-isopropyl-4,8-dimethyl-7,8-dihydropteridin-6(5H)-one] | < 60 | < 60 | ≥ 3000 | – | – |
| Cc1nc(NCc2cnn(Cc3ccc(C(F)(F)F)nc3C(C)O)c2)nc2c1NC(=O)[C@H](C)N2C (stereo partly drawn) [Compound 419, (7S)-2-(((1-((2-((S)-1-hydroxyethyl)-6-(trifluoromethyl)pyridin-3-yl)methyl)-1H-pyrazol-4-yl)methyl)amino)-4,7,8-trimethyl-7,8-dihydropteridin-6(5H)-one] | 60 to 600 | 60 to 600 | ≥ 3000 | – | – |
| Cc1nc(NCc2cnn(Cc3ccc(F)nc3)c2)nc2c1NC(=O)[C@H](C1CC1)N2C [Compound 421, (7S)-7-cyclopropyl-2-(((1-((6-fluoropyridin-3-yl)methyl)-1H-pyrazol-4-yl)methyl)amino)-4,8-dimethyl-7,8-dihydropteridin-6(511)-one] | 60 to 600 | – | – | 60 to 600 | ≥ 3000 |
| Cc1cc(F)ncc1Cn1cc(CNc2nc(C)c3c(n2)N(C)[C@@H](C(C)C)C(=O)N3)cn1 [Compound 423, (7S)-2-(((1-((6-fluoro-4-methylpyridin-3-yl)methyl)-1H-pyrazol-4-yl)methyl)amino)-7-isopropyl-4,8-dimethyl-7,8-dihydropteridin-6(5H)-one] | 60 to 600 | < 60 | ≥ 3000 | – | – |
| Cc1ncc(Cn2cc(CNc3nc(C)c4c(n3)N(C)[C@@H](C(C)C)C(=O)N4)cn2)cc1F [Compound 425, (7S)-2-(((1-((5-fluoro-6-methylpyridin-3-yl)methyl)-1H-pyrazol-4-yl)methyl)amino)-7-isopropyl-4,8-dimethyl-7,8-dihydropteridin-6(5H)-one] | 60 to 600 | 60 to 600 | ≥ 3000 | – | – |
| (7S)-2-(((1-((6-fluoro-2-isopropylpyridin-3-yl)methyl)-1H-pyrazol-4-yl)methyl)(methyl)amino)-7-isopropyl-4,8-dimethyl-7,8-dihydropteridin-6(5H)-one [Compound 430] | < 60 | – | – | < 60 | ≥ 3000 |

— patent US20230312587A1, “PTERIDINONE COMPOUNDS AND USES THEREOF” (Vertex Pharmaceutical Incorporated, priority 2018, published 2023)
